In patent US11058700B2, “Macrocyclic lactones and uses thereof as modulators of purinergic receptors” (City of Hope, priority 2015, dated 2021):

How the values were obtained:
4T1.2 cancer cells = assay: Synergy between Ivermectin and ROS (CompuSyn CI); assay type: cell-based, mouse; details: for CompuSyn CI values: 4T1.2, 24 h/48 h
Experimental: FIGS. 2A-2C. Role of NADPH oxidases-generated ROS. […] 4T1.2 cells were labeled with a ROS detection probe and treated for 1 h with 32 μM Ivermectin in the presence of 1 mM EDTA, 5mM NAC, 5 μM DPI, 2500 μunits/ml Apyrase, 3 mM ATP, and 10 μM KN-62. […] Triangles (▴) indicate significant antagonism CI>1.0. […] 4T1.2 cancer cells were irradiated (10-20 kRad) or treated with H2O2 (10-1000 μM), PTX (0.1-1 μM), or DOX (1-4 μM) and incubated with Ivermectin for 24 h/48 h. Circles (●) indicate significant synergy CI<1.0, see Table 1. Asterisk (*) indicates p<0.05 relative to untreated or Ivermectin alone controls, respectively.
Cell viability. Cancer cells were plated on 96 well flat-bottom plates and allowed to attach overnight. Cells were then pre-incubated with drugs for 1 h and treated with Ivermectin for 4 h. In the case of 24 h and 48 h incubations the cells, Ivermectin and drugs were plated together. […] Following treatment the plates were washed once with PBS and cell viability was measured using the acid phosphatase assay. Briefly, cells were incubated for 1h at 37° C. in 100 μL assay buffer (0.16 M sodium acetate, 0.1% Triton-X-100, supplemented with 4-Nitrophenyl phosphate disodium salt hexahydrate, Sigma Aldrich, at 0.00263 g/ml). Reaction was stopped using 10 μL of 1N sodium hydroxide. Absorption at 405 nm was measured within 10 min using a multi-well plate reader. Mode of cell death and viability of cells in suspension was evaluated using flow cytometry. Briefly, cancer cells were pre-incubated with drugs for 30 min to 1 h, as indicated, treated with Ivermectin for 4 h in 5 ml FACS tubes , washed twice in PBS and stained with PE-conjugated Annexin V and 7AAD (1 μl per 100 μl/200,000 cancer cells) for 15 min.

[1] = molecular target: T1, P2X4/P2X7/Pannexin-1 channels (Mus musculus, UniProt Q9JJX6); assay: Membrane permeabilization to YOPRO-1; assay type: cell-based; details: 4T1.2 cells, Ivermectin 0.5-32 μM, ATP 0.3-3 mM, 30 min
T1 construct: endogenous in cells; host or cells: 4T1.2 mouse breast cancer cells
T1 sequence (Q9JJX6 1-388): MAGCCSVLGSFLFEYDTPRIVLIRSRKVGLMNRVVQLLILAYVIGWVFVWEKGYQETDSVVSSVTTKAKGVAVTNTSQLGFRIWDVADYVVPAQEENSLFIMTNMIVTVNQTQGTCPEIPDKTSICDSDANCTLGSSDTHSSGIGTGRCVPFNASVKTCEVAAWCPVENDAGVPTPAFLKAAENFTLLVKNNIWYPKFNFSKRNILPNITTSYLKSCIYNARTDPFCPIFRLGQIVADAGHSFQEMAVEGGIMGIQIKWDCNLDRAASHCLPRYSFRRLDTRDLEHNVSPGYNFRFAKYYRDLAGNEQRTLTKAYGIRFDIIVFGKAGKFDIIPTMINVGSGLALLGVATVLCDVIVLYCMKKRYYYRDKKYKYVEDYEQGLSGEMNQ
Experimental: FIGS. 3A-3G. Dual roles of ATP and purinergic signaling in Ivermectin's killing. FIG. 3A: Depletion of extracellular ATP with Apyrase (2500 μunits/ml) exacerbates killing of 4T1.2 cell by Ivermectin. FIG. 3B: Extracellular Ca^2− and ATP contain Ivermectin-induced cell swelling. 4T1.2 cells were treated with 32 μM Ivermectin for 4 h in the presence of 1 mM EDTA or 2500 μunits/ml Apyrase. FIG. 3C: Ivermectin (0.5-32 μM) and high concentrations of extracellular ATP (0.3-3 mM) synergistically open pannexin-1 channels and permeabilize the membrane on live cells (7AAD-positive dead cells were gated out). 4T1.2 cells were treated for 30 min as indicated in the presence of 7 AAD and 5 μM YOPRO-1. FIG. 3D: Analysis of supernatants from Ivermectin-treated murine and human TNBC cells showing rapid release of ATP followed by its transient depletion. Depletion of extracellular ATP with Apyrase (2500 μunits/ml) was used as a positive control. FIG. 3E: Analysis of membrane-proximal ATP levels using cancer cells engineered to express a membrane-bound Luciferase. […] FIG. 3G: The P2X7-specific inhibitor KN-62 (1-10 μM) blocks Ivermectin cytotoxicity (IVM 8-32 μM, 4-48 h treatments). Asterisk (*) indicates p<0.05 relative to untreated or Ivermectin alone controls, respectively.
FIGS. 10A-10L. Extracellular Dual roles of ATP and purinergic signaling in Ivermectin's killing. 4T1.2 cells were treated with Ivermectin for 4 h in the presence of different inhibitors at μM concentrations as indicated. FIG. 10A: The non-specific P2 purinergic receptor inhibitor Suramin (4-400 μM) exacerbates Ivermectin-induced cell death. FIG. 10B: Inhibition of extracellular ATPases with PSB 069 protects against Ivermectin cytotoxicity. FIG. 10C: Blockade of pannexin-1 channels with Panx-1 mimetic blocking peptide (Anaspec) and Probenecid at μM concentrations as indicated exacerbates killing. […] FIG. 10E: ATP plays a transiently protective role only in the mouse but not human breast cancer cells. 4T1.2 and MDA-MB-231 cells were treated with 32 μM Ivermectin for 4 h in the presence of ATP at mM concentrations as indicated. FIG. 10F: qPCR showing up-regulation of P2X4 and P2X7 receptors on several murine cancer cell lines, including 4T1.2 and DD-Her2/neu (breast), and B16 (melanoma). […] Expression of P2X and P2Y purinergic receptors, NOX family members, GABA, and Glycine receptors was analyzed using publicly available breast cancer cell lines datasets. Statistically significant (p<0.05) up-regulation and down-regulation in breast cancer versus normal cells is shown in red and blue, respectively. FIG. 10H: Correlation between sensitivity to Ivermectin and ATP across various human cancer cell lines. Cancer cells were treated for 24 h with 3 mM ATP or Ivermectin at 16 and 32 μM doses as indicated. […]

Question: How did the “synergy with irradiation, H2O2-generated ROS, doxorubicin and paclitaxel” value (4T1.2 cancer cells; 4T1.2 cells) turn out when `CC[C@H](C)[C@H]1O[C@]2(CC[C@@H]1C)C[C@@H]1C[C@@H](C/C=C(\C)[C@@H](O[C@H]3C[C@H](OC)[C@@H](O[C@H]4C[C@H](OC)[C@@H](O)[C@H](C)O4)[C@H](C)O3)[C@@H](C)/C=C/C=C3\CO[C@@H]4[C@H](O)C(C)=C[C@@H](C(=O)O1)[C@]34O)O2` [Ivermectin] was run?
Answer: synergistic

Question: And the “CompuSyn CI values” (4T1.2 cancer cells; kRad 15 + Ivermectin 4)?
Answer: .16

Question: What about the “CompuSyn CI values” (4T1.2 cancer cells; kRad 15 + Ivermectin 8) of the same compound?
Answer: .75

Question: What about the “CompuSyn CI values” (4T1.2 cancer cells; kRad 20 + Ivermectin 4) of the same compound?
Answer: .94

Question: What about the “CompuSyn CI values” (4T1.2 cancer cells; kRad 20 + Ivermectin 8) of the same compound?
Answer: .63

Question: And the “opening of channels / permeabilization to YOPRO-1 with ATP” value [1]?
Answer: synergized with ATP in opening P2X4/P2X7/Pannexin-1 channels
